Each structure is given as a SMILES string.

Holding throughout (type): cell-based
Common to all, as to conditions: ratio of EC50 value of other species to human EC50 value

The target in one assay is T1, dog GLP-1R (Canis lupus familiaris, UniProt A0A8I3NUR9).
T1 construct: expressed in transfected cells
T1 sequence (A0A8I3NUR9 1-464): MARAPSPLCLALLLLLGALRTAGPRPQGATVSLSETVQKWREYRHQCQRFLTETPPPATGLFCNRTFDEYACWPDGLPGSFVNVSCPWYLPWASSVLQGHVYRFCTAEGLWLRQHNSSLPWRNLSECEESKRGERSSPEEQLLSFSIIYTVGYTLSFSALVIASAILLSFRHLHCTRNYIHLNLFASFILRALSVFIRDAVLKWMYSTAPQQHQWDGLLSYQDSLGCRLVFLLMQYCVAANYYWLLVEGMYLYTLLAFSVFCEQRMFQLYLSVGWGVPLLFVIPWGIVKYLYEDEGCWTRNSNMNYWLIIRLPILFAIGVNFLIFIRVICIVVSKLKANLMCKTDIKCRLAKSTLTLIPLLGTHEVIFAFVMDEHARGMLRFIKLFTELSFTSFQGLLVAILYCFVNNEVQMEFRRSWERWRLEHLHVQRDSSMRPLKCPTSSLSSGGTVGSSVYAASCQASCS
The assay is described as follows: Agonistic activity on GLP-1R of different species (LANCE Ultra cAMP assay): dog. Here is the method:
(§1) The in vitro agonistic activity of the compound of the present invention on GLP-1R was measured in cells stably expressing human, dog, mouse, rat, rabbit, and monkey GLP-1R (human GLP-1R-HEK, dog GLP-1R-HEK, mouse GLP-1R-HEK, rat GLP-1R- in HEK, rabbit GLP-1R-CHO, monkey GLP-1R-HEK cells). Human GLP-1R-HEK, dog GLP-1R-HEK, mouse GLP-1R-HEK, rat GLP-1R-HEK, rabbit GLP-1R-CHO, and monkey GLP-1R-HEK cells were resuspended in 1×Casein Stimulation Buffer (HBSS, 5 mM HEPES, 0.5 mM IBMX, 0.1% casein, pH7.4), and seeded into a 384-well cell culture plate at 9 µL/well (cell numbers being 1000, 1000, 1000, 1500, 1000, 1000 cells/well, respectively). 1 µL of 1×Casein Stimulation Buffer containing 10× compound was added to the above-mentioned 384-well cell culture plate. The plate was incubated at 37 °C for 30 minutes. After the incubation was completed, 5 µL of Eu-cAMP working solution and 5 µL of Ulight^TM-cAMP working solution were added sequentially, centrifuged and then incubated at room temperature for 1 hour. The readings at 665 nm and 620 nm were determined with a 330 nm excitation light on a microplate reader. The 665 nm/620 nm reading ratio was calculated. […] GraphPad was used to perform nonlinear regression according to the response percentage and the concentration of the compound added to obtain the EC50 value for each compound.
(Time-resolved FRET reads energy transfer from a long-lived donor to a nearby acceptor.)

The target of a further assay is T2, rabbit GLP-1R (Oryctolagus cuniculus, UniProt G1SGD4).
T2 construct: expressed in transfected cells
T2 sequence (G1SGD4 24-462): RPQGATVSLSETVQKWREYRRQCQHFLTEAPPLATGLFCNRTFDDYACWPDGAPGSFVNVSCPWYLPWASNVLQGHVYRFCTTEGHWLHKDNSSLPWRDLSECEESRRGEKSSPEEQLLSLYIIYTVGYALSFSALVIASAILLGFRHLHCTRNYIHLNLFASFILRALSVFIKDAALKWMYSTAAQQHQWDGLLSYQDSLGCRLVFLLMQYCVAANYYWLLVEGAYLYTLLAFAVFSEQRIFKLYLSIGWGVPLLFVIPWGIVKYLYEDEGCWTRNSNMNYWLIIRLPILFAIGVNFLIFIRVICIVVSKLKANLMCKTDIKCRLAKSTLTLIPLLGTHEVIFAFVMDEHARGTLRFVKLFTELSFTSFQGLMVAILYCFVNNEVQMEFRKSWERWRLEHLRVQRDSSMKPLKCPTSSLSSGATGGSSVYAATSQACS
The assay is described as follows: Agonistic activity on GLP-1R of different species (LANCE Ultra cAMP assay): rabbit. As for the experimental part:
as §1

For the next assay, the target named is T3, mouse GIPR (Mus musculus, UniProt Q0P543).
T3 construct: expressed in transfected cells; host or cells: CHO-K1 (transient)
T3 sequence (Q0P543 19-460): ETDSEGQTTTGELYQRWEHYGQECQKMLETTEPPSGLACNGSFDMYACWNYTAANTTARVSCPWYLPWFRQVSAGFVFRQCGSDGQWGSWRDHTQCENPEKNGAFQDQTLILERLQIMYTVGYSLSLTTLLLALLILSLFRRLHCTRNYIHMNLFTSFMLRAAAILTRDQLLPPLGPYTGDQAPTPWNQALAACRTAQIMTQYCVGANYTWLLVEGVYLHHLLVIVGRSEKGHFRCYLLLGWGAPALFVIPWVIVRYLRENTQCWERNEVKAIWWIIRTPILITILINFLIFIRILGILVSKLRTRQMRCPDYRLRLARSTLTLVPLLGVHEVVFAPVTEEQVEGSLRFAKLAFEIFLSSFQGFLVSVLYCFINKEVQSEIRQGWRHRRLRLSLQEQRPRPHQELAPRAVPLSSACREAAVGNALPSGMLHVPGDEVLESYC
The assay is described as follows: Agonistic activity on GIPR of different species (LANCE Ultra cAMP assay): mouse.

Another assay concerns the target T4, mouse GLP-1R (Mus musculus, UniProt O35659).
T4 construct: expressed in transfected cells
T4 sequence (O35659 22-463): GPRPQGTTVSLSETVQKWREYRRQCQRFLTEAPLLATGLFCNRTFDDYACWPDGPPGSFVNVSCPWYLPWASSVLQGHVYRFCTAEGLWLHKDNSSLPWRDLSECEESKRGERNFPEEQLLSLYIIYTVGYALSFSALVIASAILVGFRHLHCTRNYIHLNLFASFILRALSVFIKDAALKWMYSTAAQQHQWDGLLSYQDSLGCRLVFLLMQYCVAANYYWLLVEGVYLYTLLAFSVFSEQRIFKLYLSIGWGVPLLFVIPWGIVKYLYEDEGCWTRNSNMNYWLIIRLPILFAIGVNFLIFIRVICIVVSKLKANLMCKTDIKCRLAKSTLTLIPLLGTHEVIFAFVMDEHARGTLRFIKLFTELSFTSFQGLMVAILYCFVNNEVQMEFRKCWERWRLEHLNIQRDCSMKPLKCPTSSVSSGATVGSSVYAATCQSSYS
The assay is described as follows: Agonistic activity on GLP-1R of different species (LANCE Ultra cAMP assay): mouse.

Another assay relates to monkey GLP-1R. The assay is described as follows: Agonistic activity on GLP-1R of different species (LANCE Ultra cAMP assay): monkey. Here is the method: as §1

Regarding `CC[C@H](C)[C@H](NC(=O)C(C)(C)NC(=O)[C@H](Cc1ccc(O)cc1)NC(=O)[C@H](CC(=O)O)NC(=O)[C@H](CO)NC(=O)[C@@H](NC(=O)C(C)(Cc1ccccc1)NC(=O)[C@@H](NC(=O)CNC(=O)[C@H](CCC(=O)O)NC(=O)C(C)(C)NC(=O)[C@@H](N)Cc1ccc(O)cc1)[C@@H](C)O)[C@@H](C)O)C(=O)NC(C)(C)C(=O)N[C@@H](CC(C)C)C(=O)N[C@@H](CC(=O)O)C(=O)N[C@@H](CCCCN)C(=O)N[C@@H](CCC(N)=O)C(=O)N[C@@H](C)C(=O)N[C@@H](CCC(N)=O)C(=O)N[C@@H](C)C(=O)N[C@@H](CCC(=O)O)C(=O)N[C@@H](Cc1ccccc1)C(=O)N[C@H](C(=O)N[C@@H](CCCCNC(=O)COCCOCCNC(=O)COCCOCCNC(=O)COCCOCCNC(=O)CC[C@H](NC(=O)CCCCCCCCCCCCCCCCCCCCC(=O)O)C(=O)O)C(=O)N[C@@H](Cc1c[nH]c2ccccc12)C(=O)N[C@@H](CC(C)C)C(=O)N[C@@H](CC(C)C)C(=O)N[C@@H](CCCCN)C(=O)NCC(=O)NCC(=O)N1CCC[C@H]1C(=O)N[C@@H](CO)C(=O)N[C@@H](CO)C(=O)NCC(=O)N[C@@H](C)C(=O)N1CCC[C@H]1C(=O)N1CCC[C@H]1C(=O)N1CCC[C@H]1C(=O)N[C@@H](CO)C(=O)N[C@@H](CCCCN)C(N)=O)C(C)C` (some centres unmarked) [Compound P016], the “GLP-1R EC50 ratio” value amounted to 4.52 at dog GLP-1R, 1.05 at rabbit GLP-1R, 1.09 at mouse GLP-1R and 2.66 with monkey GLP-1R. Also, the “GIPR EC50 ratio” value at mouse GIPR stood at 12.49.

(Values after patent EP4813403A1, “USE OF GLP-1R/GIPR DOUBLE-TARGET AGONIST IN PREPARING ANIMAL DRUG” (Hangzhou Zhongmeihuadong Pharmaceutical Co., Ltd., priority 2023, dated 2025).)
